Measurements published in patent US5554620A, “Substituted 6,11-ethano-6,11-dihydrobenzo[b] quinolizinium salts and compositions and methods of use thereof” (Sterling Winthrop Inc., priority 1994, dated 1996).

Legend:
PCP receptor = assay: [3H]TCP radioreceptor assay (binding to PCP recognition sites); design: species or system rat (male Sprague-Dawley, whole brain); conditions: [3H]TCP approx. 1 nM, rat brain membranes; mean of at least two determinations
Procedure, shortened: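 Rat whole-brain membranes (Tris-HCl, pH 7.7), 0.5 mg protein/tube, incubated with ~1 nM [3H]TCP for 25 min at room temperature; non-specific binding defined with 100 μM PCP. Bound ligand collected by filtration and counted by scintillation; Ki from at least two determinations, or % inhibition at 10 μM.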

[1] = test system: cultured cortical neurons; assay: Antagonism of NMDA-induced neurotoxicity in cultured cortical neurons (LDH release); format: cell-based, mouse (Swiss-Webster); conditions: 500 μM NMDA, 30 min exposure, LDH 24 h later
Description: Antagonism of NMDA-induced Neurotoxicity in Cultured Neurons
Preparation of Cultured Cortical Neurons
Pregnant, Swiss-Webster mice were obtained from Taconic Farms (Germantown, New York) and sacrificed 16 days post conception. Fetuses were removed and placed in a sterile dish containing Hank's balanced salt solution (HBSS), pH 7.4. Brain cortices were dissected, meninges were removed, the tissue was minced and placed into a solution of HBSS containing 0.25% (w/v) trypsin at 37° C. for 15 minutes. Tissue was then triturated with a sterile pasteur pipet, diluted with minimal essential media (Gibco 330-1430), pH 7.4, supplemented with 10% horse serum, 10% fetal calf serum, 2 mM 1-glutamine, 21 mM d-glucose, 2.2 g/L sodium bicarbonate, 1000 U/mL penicillin, and 1,000 μg/mL streptomycin. Cells were plated onto Falcon primaria 96 well plates at a final density of 50,000 cells/well and incubated at 37 °C in the presence of 5% (v/v) carbon dioxide. After 5 days, plating media was replaced with maintenance media containing minimal essential media (Gibco 330-1430), pH 7.4, supplemented with 10% horse serum, […], 21 mM d-glucose, 2.2 g/L sodium bicarbonate, 1,000 U/mL penicillin, 1,000 μg/mL streptomycin, and 10 μM cytosine arabinoside. On days 7 and 10, media was replaced with maintenance media as above lacking the cytosine arabinoside. Experiments were conducted on day 13.
Neuroprotection Assessment
Day 13 cultured cortical neurons were washed twice with minimal essential media, pH 7.4 and then exposed for 30 minutes to 500 μM N-methyl-D-aspartic acid (NMDA) with or without varying concentrations of test agents. […] MK-801 and test agents were prepared in minimal essential media supplemented with 21 mM d-glucose and 2.2 g/L sodium bicarbonate (MEM). After 30 minutes, media was replaced with MEM alone. Exposure of neurons to test agents was limited to the NMDA treatment period. Twenty-four hours after removal of NMDA, an aliquot of media from each well was removed for assessment of cell injury by determining lactate dehydrogenase (LDH) activity by the method of Wroblewski and LaDue Proc. Soc. Exp. Biol. Med. 1955, 90, 210-213. The results are expressed as an IC50 (in nM) value (concentration causing 50% inhibition) for the antagonism of NMDA--inducedneurotoxicity. Table 3 summarizes the results obtained from the testing of representative compounds of the invention in the [^3 H]TCP radioreceptor assay as well as in the antagonism of NMDA-induced neurotoxicity in cultured neurons.

rat ischemia model = assay: Middle cerebral artery occlusion (MCAo) model with reperfusion; format: in vivo, rat (male Long Evans hooded and male Sprague-Dawley); conditions: i.v. infusion started 30 min before occlusion
Description: Middle Cerebral Artery Occlusion (MCAo) Model with Reperfusion
A 3-vessel rat ischemia model similar to those that have been extensively described in the literature (e.g. Stroke 17, 738-743 (1986), Stroke 20, 513-518 (1989)) was utilized. Under isoflurane anesthesia the right middle cerebral artery (via an approach through the temporalis muscle) and both common carotid arteries were reversibly occluded for varying durations between 60 minutes and 120 minutes. Both male Long Evans hooded rats and male Sprague-Dawley rats weighing between 300 and 420 grams were used. The animals' temperature was maintained throughout the study with heat lamps. A femoral vein and the ipsilateral femoral artery were cannulated for intravenous infusion and arterial blood pressure measurements and blood samples. Infusions of the test compounds were initiated 30 minutes prior to occlusion at a rate of 40 microliters per minute. After reinitiation of blood flow the animals were allowed to regain consciousness. Six hours post-initiation of ischemia the animals were sacrificed and the extent of neuronal damage was quantified with TTC staining. The results are expressed as a percent inhibition (±SEM) of infarct and penumbra region.

Row | Compound | Ki (PCP receptor) [nM] | IC50 ([1]; Mus musculus, Cortical neurone) [nM] | % Inhibition (± SEM) of infarct and penumbra region (rat ischemia model; 0.01 mg test compound/kg/min) [%] | % Inhibition (± SEM) of infarct and penumbra region (rat ischemia model; 0.03 mg test compound/kg/min) [%] | % Inhibition (± SEM) of infarct and penumbra region (rat ischemia model; 0.1 mg test compound/kg/min) [%] | IC50 [1] [nM]
1 | c1ccc2c(c1)C1CC(c3ccoc3)(c3ccoc3)C2c2cccc[n+]21 (single isomer, unassigned; (+)) [Example 40(b), (+)-6,11-ethano-12,12-di(3-furanyl)-6,11-dihydrobenzo[b]quinolizinium chloride 3/2 hydrate] | 1.66 | 20 | 1 ± 31 | 49 ± 25 | 47 ± 18 | 
2 | [Cl-].c1ccc2c(c1)C1CC(c3ccoc3)(c3ccoc3)C2c2cccc[n+]21 (stereo not shown) [39(c), 6,11-ethano-12,12-di(3-furanyl)-6,11-dihydrobenzo[b]quinolizinium chloride] | 1.79 | 45.4 |  | 20 ± 7 | 34 ± 6 | 
3 | Oc1cccc2c1C1c3cccc[n+]3C2CC1(c1ccoc1)c1ccoc1.[Cl-] (stereo not shown) [Example 68(c), 6,11-ethano-12,12-di(3-furyl)-10-hydroxy-6,11-dihydrobenzo[b]quinoliziniumchloride] | 1.5 |  |  |  | 34 ± 14 | 
4 | CCOC1(c2ccoc2)CC2c3ccccc3C1c1cccc[n+]12 (stereo not shown) [11(F), 6,11-ethano-12-(3-furyl)-12-ethoxy-6,11-dihydrobenzo[b]quinolizinium chloride] | 73 | 2550 |  |  |  | 
5 | c1ccc2c(c1)C1C3CCc4occc4C3(c3ccoc3)C2c2cccc[n+]21 (stereo not shown) [7(b), 6,11[[5',4']-4'-(3-furyl)-4',5',6',7'-tetrahydrobenzofuryl]6,11-dihydrobenzo[b]quinolizinium hexafluorophosphate] | 1.38 | 7.6 |  |  |  | 
6 | CC1C2c3ccccc3C(c3cccc[n+]32)C1(c1ccoc1)c1ccoc1 (single isomer, unassigned) [181(d), 6,11-ethano-12,12-di(3-furyl)-13-methyl-6,11-dihydrobenzo[b]quinolizinium hexafluorophosphate] | 6.15 |  |  |  |  | 55
7 | Fc1ccc2c(c1)C1c3cccc[n+]3C2CC1(c1ccoc1)c1ccoc1.[O-][Cl+3]([O-])([O-])[O-] (stereo not shown) [196(c), 12,12-di(3-furyl)-9-fluoro-6,11-ethano-6,11-dihydrobenzo[b]quinolizinium perchlorate] | 4.11 | 80 |  |  |  | 
8 | CC12CC(c3cccs3)(c3cccs3)C(c3ccccc31)c1cccc[n+]12 (stereo not shown) [47(d), 6,11-ethano-12,12-di(2-thienyl)-6-methyl-6,11-dihydrobenzo[b]quinoliziniumchloride] | 2.11 | 40 |  |  |  | 
9 | c1ccc(C2(c3ccccc3)CC3c4ccccc4C2c2cccc[n+]23)cc1 (stereo not shown) [17(b), 6,11-ethano-12,12-diphenyl-6,11-dihydrobenzo[b]quinolizinium chloride] | 8.18 |  |  |  |  | 197
10 | c1ccc2c(c1)C1CC(c3ccn[nH]3)(c3ccn[nH]3)C2c2cccc[n+]21 (stereo not shown) [63(d), 6,11-ethano-12,12-di(5-pyrazolyl)-6,11-dihydrobenzo[b]quinoliziniumperchlorate] | 10 |  |  |  |  | 1630
11 | c1ccc2c(c1)C1CC(c3ccn[nH]3)(c3ccn[nH]3)C2c2cccc[n+]21 (stereo not shown) [64(f), 11-ethano-12,12-di-[(pyrazol-5-yl)-6,11-dihydrobenzo[b]quinolizinium chloride] | 13 |  |  |  |  | 360
12 | CC12CC(c3ccccc3)(c3ccccc3)C(c3ccccc31)c1cccc[n+]12 (stereo not shown) [19(b), 6,11-ethano-12,12-diphenyl-6-methyl-6,11-dihydro-benzo[b]quinolizinium. Chloride] | 6.8 | 102 |  |  |  | 
13 | CC12c3ccccc3C(c3cccc[n+]31)C(c1ccccc1)(c1ccccc1)C21CC1 (stereo not shown) [51(c), 6,11-ethano-12,12-diphenyl-6-methyl-13,13-(spirocyclopropane)-6,11-dihydrobenzo[b]quinolizinium chloride] | 22.3 | 83 |  |  |  | 
